According to patent publication US20230048888A1, “USE OF TRIAZOLOTRIAZINE DERIVATIVE IN TREATMENT OF DISEASES” (ZHEJIANG VIMGREEN PHARMACEUTICALS, LTD., priority 2019, published 2023):
Like-named read-outs stand apart in the source and are kept apart here.

Test: Pharmacokinetics of acetate of Compound 22 in SD rats with single and repeated administration
Format: in vivo
Details: for clearance / Vd / AUC(0-t) / half-life / bioavailability / Cmax / C0 / Tmax: rat, plasma; for Tmax: read-out: Tmax (median)
Experimental: The formulation for Group 5 was prepared before administration on Day 1, and then, divided into daily doses and stored at 5±3° C. After taking out the formulations on the day of administration, the formulations should be let stand at room temperature for at least 30 minutes before administration.
After blood collection, the blood collection tube containing the anticoagulant was turned upside down several times to mix well, and placed on wet ice before centrifugation. Within 60 minutes after blood collection, the samples were centrifuged at 2000 g for 10 minutes at 2-8° C. to separate red blood cells, thereby obtaining plasma samples. The plasma samples were transferred to cryovials and stored at −75±15° C. until analysis.
Blood samples were collected from SD rats at room temperature before administration and within 24 hours after administration. All collected samples were placed on wet ice before centrifugation and stored at −75±15° C. until analysis.
The mass spectrometer was Applied Biosystems/AB Sciex Triple Quad 4500.
Pharmacokinetic data was calculated using the linear logarithmic trapezoidal method, with a weight of 1/(Y*Y). Samples with the sample concentration below the lower limit of quantification were excluded from the calculation of pharmacokinetic parameters. […] The mean time to peak (Tmax) was represented as a median.

Q: Which “exposure ratio between Day 7 and Day 1” value (63 mg/kg daily for 7 consecutive days) does the source give for `CC(=O)O.Nc1nc(NCCc2ccc(NC3COC3)cc2)nc2nc(-c3ccco3)nn12` [Acetate of Compound 22, 2-(furan-2-yl)-N5-(4-(oxetane-3-ylamino)phenethyl)-[1,2,4]triazolo[1,5-a][1,3,5]triazine-5,7-diamine acetate] here?
A: The value was “less than 2”.

Q: What about the F (Group 2 PO 21 mg/kg single, Female) of the same molecule?
A: The F was 70.8 ± 6.75%.

Q: And the F (Group 2 PO 21 mg/kg single, Male)?
A: The F was 82.2 ± 20.6%.

Q: And the F (Group 2 PO 21 mg/kg single, Overall)?
A: Its F is 76.5 ± 15.1%.

Q: What about the F (Group 3 PO 63 mg/kg single, Female) of the same molecule?
A: Its F is 74.1 ± 21.9%.

Q: What about the F (Group 3 PO 63 mg/kg single, Male) of the same molecule?
A: Its F is 56.9 ± 1.98%.

Q: What about the F (Group 3 PO 63 mg/kg single, Overall) of the same molecule?
A: Its F is 65.5 ± 16.8%.

Q: And the F (Group 4 PO 189 mg/kg single, Female)?
A: The F was 44.9 ± 10.1%.

Q: What about the F (Group 4 PO 189 mg/kg single, Male) of the same molecule?
A: The F was 50.9 ± 5.28%.

Q: And the F (Group 4 PO 189 mg/kg single, Overall)?
A: Its F is 47.9 ± 7.91%.

Q: What about the F (Group 5 PO 63 mg/kg repeated, Day 1, Female) of the same molecule?
A: The F was 77.0 ± 12.5%.

Q: And the F (Group 5 PO 63 mg/kg repeated, Day 1, Male)?
A: The F was 51.9 ± 20.5%.

Q: What about the F (Group 5 PO 63 mg/kg repeated, Day 1, Overall) of the same molecule?
A: Its F is 64.5 ± 20.5%.

Q: What about the clearance (Sprague-Dawley (SD), intravenous injection 2.0 mg/kg, read-out: clearance rate (CL)) of the same molecule?
A: Its clearance is 6.02 mL/min/kg.

Q: And the Vd (Sprague-Dawley (SD), intravenous injection 2.0 mg/kg, read-out: steady-state apparent volume of distribution (Vss))?
A: The Vd was 0.457 L/kg.

Q: What about the AUC(0-t) (Sprague-Dawley (SD), iv, 2 mg/kg, intravenous injection 2.0 mg/kg, read-out: drug exposure AUC0-t) of the same molecule?
A: Its AUC(0-t) is 5.36 µg·h/mL.

Q: And the half-life (Sprague-Dawley (SD), iv, 2 mg/kg, intravenous injection 2.0 mg/kg, read-out: half-life T1/2 (converted))?
A: The half-life was 3.39 h.

Q: And the bioavailability (Sprague-Dawley (SD), oral 21 mg/kg)?
A: Its bioavailability is 76.5%.

Q: And the bioavailability (Sprague-Dawley (SD), oral 63 mg/kg)?
A: The bioavailability was 65.5%.

Q: And the bioavailability (Sprague-Dawley (SD), oral 189 mg/kg)?
A: The bioavailability was 47.9%.

Q: What about the AUC(0-t) (Sprague-Dawley (SD), oral, 63 mg/kg, 63 mg/kg daily for 7 consecutive days, Day 1, read-out: AUC0-t) of the same molecule?
A: The AUC(0-t) was 111 µg·h/mL.

Q: What about the AUC(0-t) (Sprague-Dawley (SD), oral, 63 mg/kg, 63 mg/kg daily for 7 consecutive days, Day 7, read-out: AUC0-t) of the same molecule?
A: The AUC(0-t) was 127 µg·h/mL.

Q: And the AUC(0-t) (Sprague-Dawley (SD), po, 21 mg/kg, oral 21 mg/kg, read-out: drug exposure (AUC0-t))?
A: The AUC(0-t) was 42.8 µg·h/mL.

Q: What about the Cmax (Sprague-Dawley (SD), po, 21 mg/kg, oral 21 mg/kg, read-out: maximum plasma concentration (Cmax)) of the same molecule?
A: The Cmax was 18400 ng/mL.

Q: What about the AUC(0-t) (Sprague-Dawley (SD), po, 63 mg/kg, oral 63 mg/kg, read-out: drug exposure (AUC0-t)) of the same molecule?
A: Its AUC(0-t) is 112 µg·h/mL.

Q: What about the Cmax (Sprague-Dawley (SD), po, 63 mg/kg, oral 63 mg/kg, read-out: maximum plasma concentration (Cmax)) of the same molecule?
A: Its Cmax is 27400 ng/mL.

Q: And the AUC(0-t) (Sprague-Dawley (SD), po, 189 mg/kg, oral 189 mg/kg, read-out: drug exposure (AUC0-t))?
A: Its AUC(0-t) is 241 µg·h/mL.

Q: And the Cmax (Sprague-Dawley (SD), po, 189 mg/kg, oral 189 mg/kg, read-out: maximum plasma concentration (Cmax))?
A: The Cmax was 51800 ng/mL.

Q: And the C0 (Sprague-Dawley, Group 1 IV 2.0 mg/kg single, Female)?
A: Its C0 is 8140 ± 820 ng/mL.

Q: What about the clearance (Sprague-Dawley, Group 1 IV 2.0 mg/kg single, Female, read-out: CL) of the same molecule?
A: The clearance was 5.66 ± 0.166 mL/min/kg.

Q: What about the Vd (Sprague-Dawley, Group 1 IV 2.0 mg/kg single, Female, read-out: Vss) of the same molecule?
A: Its Vd is 0.465 ± 0.122 L/kg.

Q: And the C0 (Sprague-Dawley, Group 1 IV 2.0 mg/kg single, Male)?
A: The C0 was 7060 ± 699 ng/mL.

Q: What about the clearance (Sprague-Dawley, Group 1 IV 2.0 mg/kg single, Male, read-out: CL) of the same molecule?
A: Its clearance is 6.56 mL/min/kg.

Q: And the Vd (Sprague-Dawley, Group 1 IV 2.0 mg/kg single, Male, read-out: Vss)?
A: The Vd was 0.445 L/kg.

Q: What about the C0 (both sexes, Sprague-Dawley, Group 1 IV 2.0 mg/kg single, Overall) of the same molecule?
A: The C0 was 7600 ± 905 ng/mL.

Q: And the clearance (both sexes, Sprague-Dawley, Group 1 IV 2.0 mg/kg single, Overall, read-out: CL)?
A: Its clearance is 6.02 ± 0.668 mL/min/kg.

Q: What about the Vd (both sexes, Sprague-Dawley, Group 1 IV 2.0 mg/kg single, Overall, read-out: Vss) of the same molecule?
A: The Vd was 0.457 ± 0.088 L/kg.

Q: What about the AUC(0-t) (both sexes, Sprague-Dawley, iv, 2 mg/kg, Group 1 IV 2.0 mg/kg single, Overall, read-out: AUC0-t) of the same molecule?
A: Its AUC(0-t) is 5.36 ± 0.664 µg·h/mL.

Q: What about the half-life (both sexes, Sprague-Dawley, iv, 2 mg/kg, Group 1 IV 2.0 mg/kg single, Overall, read-out: T1/2 (converted)) of the same molecule?
A: Its half-life is 3.39 ± 2.9 h.

Q: And the AUC(0-t) (both sexes, Sprague-Dawley, po, 21 mg/kg, Group 2 PO 21 mg/kg single, Overall, read-out: AUC0-t)?
A: Its AUC(0-t) is 42.8 ± 7.21 µg·h/mL.

Q: And the Cmax (both sexes, Sprague-Dawley, po, 21 mg/kg, Group 2 PO 21 mg/kg single, Overall, read-out: Cmax)?
A: The Cmax was 18400 ± 4040 ng/mL.

Q: And the half-life (both sexes, Sprague-Dawley, po, 21 mg/kg, Group 2 PO 21 mg/kg single, Overall, read-out: T1/2 (converted))?
A: The half-life was 3.47 ± 0.596 h.

Q: What about the Tmax (both sexes, Sprague-Dawley, po, 21 mg/kg, Group 2 PO 21 mg/kg single, Overall) of the same molecule?
A: Its Tmax is 0.5 h.

Q: And the AUC(0-t) (both sexes, Sprague-Dawley, po, 63 mg/kg, Group 3 PO 63 mg/kg single, Overall, read-out: AUC0-t)?
A: Its AUC(0-t) is 112 ± 37.2 µg·h/mL.

Q: What about the Cmax (both sexes, Sprague-Dawley, po, 63 mg/kg, Group 3 PO 63 mg/kg single, Overall, read-out: Cmax) of the same molecule?
A: Its Cmax is 27400 ± 7200 ng/mL.

Q: What about the half-life (both sexes, Sprague-Dawley, po, 63 mg/kg, Group 3 PO 63 mg/kg single, Overall, read-out: T1/2 (converted)) of the same molecule?
A: Its half-life is 3.01 ± 0.63 h.

Q: What about the Tmax (both sexes, Sprague-Dawley, po, 63 mg/kg, Group 3 PO 63 mg/kg single, Overall) of the same molecule?
A: The Tmax was 1 h.

Q: And the AUC(0-t) (both sexes, Sprague-Dawley, po, 63 mg/kg, Group 5 PO 63 mg/kg repeated, Day 1, Overall, read-out: AUC0-t)?
A: Its AUC(0-t) is 111 ± 42.1 µg·h/mL.

Q: What about the Cmax (both sexes, Sprague-Dawley, po, 63 mg/kg, Group 5 PO 63 mg/kg repeated, Day 1, Overall, read-out: Cmax) of the same molecule?
A: Its Cmax is 28800 ± 11400 ng/mL.

Q: And the half-life (both sexes, Sprague-Dawley, po, 63 mg/kg, Group 5 PO 63 mg/kg repeated, Day 1, Overall, read-out: T1/2 (converted))?
A: Its half-life is 3.33 ± 1.68 h.

Q: What about the Tmax (both sexes, Sprague-Dawley, po, 63 mg/kg, Group 5 PO 63 mg/kg repeated, Day 1, Overall) of the same molecule?
A: Its Tmax is 2 h.
